Experimental data as given in ChEMBL document CHEMBL1201862, “PubChem BioAssay data set” (2004).
The source made the active and inactive calls.

What was measured:
[1] = Luminescence Cell-Based Dose Confirmation HTS to Identify Inhibitors of Platelet Dense Granule Release. [Related pubchem assays: 1663 (Primary HTS), 1678 (Summary of Project)]; assay type: functional
[2] = molecular target: Luciferin 4-monooxygenase (Photinus pyralis, UniProt P08659); assay: firefly luciferase enzyme inhibitors, dose response, biochemical, luminescence (AID 1891)
Fatty acid synthase [3] = molecular target: T1, Fatty acid synthase (Homo sapiens, UniProt P49327); assay: FAS thioesterase domain inhibitors, dose response, biochemical, kinetic fluorescence intensity (AID 624326); assay type: functional;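 further: rate of fluorescence rise from hydrolysis of a fluorogenic O-methyl fluorescein ester substrate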
Fatty acid synthase [4] = molecular target: T1, Fatty acid synthase; assay: FAS thioesterase domain inhibitors, dose response, biochemical, endpoint fluorescence intensity, uHTS hits (AID 624327); assay type: functional;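 further: fluorescence from hydrolysis of an O-methyl fluorescein acyl ester substrate by the enzyme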
[5] = molecular target: T2, DNA repair protein RAD52 homolog (Homo sapiens, UniProt P43351); assay type: functional, biochemical
T2 sequence (P43351 whole entry): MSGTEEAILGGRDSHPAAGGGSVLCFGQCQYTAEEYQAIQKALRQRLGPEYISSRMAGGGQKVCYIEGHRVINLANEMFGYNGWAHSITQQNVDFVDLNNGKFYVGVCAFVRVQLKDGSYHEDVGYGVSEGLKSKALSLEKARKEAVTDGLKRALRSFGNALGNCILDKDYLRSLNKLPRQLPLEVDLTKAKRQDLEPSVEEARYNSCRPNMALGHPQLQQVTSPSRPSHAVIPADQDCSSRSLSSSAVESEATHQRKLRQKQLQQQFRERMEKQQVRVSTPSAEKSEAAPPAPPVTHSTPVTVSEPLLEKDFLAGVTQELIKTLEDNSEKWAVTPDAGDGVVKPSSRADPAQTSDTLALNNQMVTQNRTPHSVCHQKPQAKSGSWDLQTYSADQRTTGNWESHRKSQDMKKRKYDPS

[6] = molecular target: T3, Heat shock factor protein 1 (Mus musculus, UniProt P38532); assay: HSF1 potentiators in luciferase reporter cells, confirmation, cell-based, NIH3T3, luminescence, dose retest (AID 435004); assay type: functional;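 further: stress induced by proteasome inhibitor MG132 added 30 min after compound; luciferase reporter driven by HSF1 response element in NIH3T3 cells; actives raise luminescence as potentiators of the MG132 stress response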
T3 sequence (P38532 whole entry): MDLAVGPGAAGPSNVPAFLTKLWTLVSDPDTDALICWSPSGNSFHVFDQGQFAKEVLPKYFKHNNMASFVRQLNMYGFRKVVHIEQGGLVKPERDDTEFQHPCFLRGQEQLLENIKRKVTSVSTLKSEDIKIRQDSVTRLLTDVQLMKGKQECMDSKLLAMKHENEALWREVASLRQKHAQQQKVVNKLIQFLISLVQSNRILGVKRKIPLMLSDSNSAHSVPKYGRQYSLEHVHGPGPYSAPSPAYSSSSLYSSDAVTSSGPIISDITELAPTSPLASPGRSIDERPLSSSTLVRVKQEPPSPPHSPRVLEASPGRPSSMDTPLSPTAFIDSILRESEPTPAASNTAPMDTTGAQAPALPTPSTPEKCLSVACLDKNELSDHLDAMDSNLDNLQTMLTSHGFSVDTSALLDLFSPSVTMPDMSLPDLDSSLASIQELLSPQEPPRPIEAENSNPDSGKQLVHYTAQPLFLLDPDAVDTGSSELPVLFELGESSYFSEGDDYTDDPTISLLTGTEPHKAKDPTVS

Leucine aminopeptidase = molecular target: T4, Leucine aminopeptidase (Plasmodium falciparum 3D7, UniProt Q8IL11); assay: P. falciparum M17LAP inhibitors, primary screen, biochemical, fluorogenic H-Leu-NHMec substrate, 1536-well (AID 1619); assay type: functional
T4 sequence (Q8IL11 whole entry): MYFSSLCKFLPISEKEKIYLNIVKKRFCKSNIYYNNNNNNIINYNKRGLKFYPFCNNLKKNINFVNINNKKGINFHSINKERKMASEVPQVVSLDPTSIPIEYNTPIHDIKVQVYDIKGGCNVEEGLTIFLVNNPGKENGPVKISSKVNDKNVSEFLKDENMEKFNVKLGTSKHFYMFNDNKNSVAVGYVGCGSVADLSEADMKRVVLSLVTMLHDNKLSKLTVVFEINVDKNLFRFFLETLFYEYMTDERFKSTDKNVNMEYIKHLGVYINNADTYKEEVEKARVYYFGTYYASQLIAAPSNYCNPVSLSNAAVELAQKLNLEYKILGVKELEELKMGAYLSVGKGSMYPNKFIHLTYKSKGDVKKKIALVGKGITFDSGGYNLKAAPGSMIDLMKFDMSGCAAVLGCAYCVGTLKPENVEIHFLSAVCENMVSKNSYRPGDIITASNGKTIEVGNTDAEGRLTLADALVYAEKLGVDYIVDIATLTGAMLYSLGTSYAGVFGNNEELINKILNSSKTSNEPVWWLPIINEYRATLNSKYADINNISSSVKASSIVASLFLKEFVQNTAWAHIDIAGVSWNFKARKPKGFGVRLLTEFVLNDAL

[7] = molecular target: T5, Calpain-2 catalytic subunit (Sus scrofa, UniProt P43367); assay: pig calpain II inhibitor potency, dose response, biochemical, fluorogenic peptide substrate (AID 1420); assay type: functional
T5 sequence (P43367 whole entry): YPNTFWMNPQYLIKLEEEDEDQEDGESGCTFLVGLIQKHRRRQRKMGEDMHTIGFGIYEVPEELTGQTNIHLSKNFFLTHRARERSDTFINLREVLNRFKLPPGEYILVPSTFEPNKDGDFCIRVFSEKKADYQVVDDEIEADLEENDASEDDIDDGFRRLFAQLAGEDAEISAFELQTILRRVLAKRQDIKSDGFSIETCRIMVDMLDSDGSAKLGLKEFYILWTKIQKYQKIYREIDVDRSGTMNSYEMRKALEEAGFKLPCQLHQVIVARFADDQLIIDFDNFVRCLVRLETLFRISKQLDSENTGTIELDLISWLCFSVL

[8] = NIH-3T3 fibroblast cytotoxicity, dose response, cytotoxicity control, cell-based, fluorescence, Alamar Blue, secondary assay (AID 2327); assay type: functional;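 further: NIH-3T3 mouse fibroblasts cultured with fluconazole at 8 µg/mL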
[9] = C. albicans growth with fluconazole, confirmation, fluorescence, retest (AID 2467); assay type: functional, cell-based
cells [10] = assay type: functional, cell-based
cells [11] = assay type: functional, cell-based; remark: listed apart in the source
[12] = microbe, parasite or virus in culture; assay type: functional; conditions: Mycobacterium tuberculosis
[13] = Luminescence Cell-Based Dose Retest to Confirm Inhibitors of Cancer Stem Cells. [Related pubchem assays (depositor defined):AID2717, AID2721]; assay type: functional; conditions: Homo sapiens
[14] = inhibitors of SNCA 5'UTR-driven reporter translation, confirmation, H4 neuroglioma cells, luminescence (AID 1988); assay type: functional, cell-based
BJ [15] = assay: cells; assay type: functional, cell-based; conditions: Homo sapiens
BJ [16] = assay: cytotoxicity toward BJ-TERT fibroblasts, dose response, cell-based, RAS-independent, luminescence (AID 1933); assay type: functional; conditions: Homo sapiens
[17] = cytotoxicity toward DRD oncogenic fibroblasts, dose response, cell-based, non-viral oncogenic, luminescence (AID 1934); assay type: functional; conditions: Homo sapiens
BJ [18] = assay: cytotoxicity toward BJ-TERT-LT-ST fibroblasts, dose response, cell-based, RAS-independent, luminescence (AID 1935); assay type: functional; conditions: Homo sapiens;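 further: BJ fibroblasts immortalized with TERT plus LT and ST oncogenes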
[19] = inhibitors of firefly luciferase expression or activity, dose response, H4 neuroglioma cells, luminescence (AID 1990); assay type: functional, cell-based
[20] = Luminescence Cell-Based Dose Response HTS to Identify Inhibitors of 5'UTR Stem-Loop Driven Prion Protein mRNA Translation in H4 Neuroglioblastoma Cells. [Related pubchem assays: 1827 (Project Summary), 1813 (Primary HTS)]; assay type: functional

T1 sequence (P49327 whole entry, the tested form may be a part): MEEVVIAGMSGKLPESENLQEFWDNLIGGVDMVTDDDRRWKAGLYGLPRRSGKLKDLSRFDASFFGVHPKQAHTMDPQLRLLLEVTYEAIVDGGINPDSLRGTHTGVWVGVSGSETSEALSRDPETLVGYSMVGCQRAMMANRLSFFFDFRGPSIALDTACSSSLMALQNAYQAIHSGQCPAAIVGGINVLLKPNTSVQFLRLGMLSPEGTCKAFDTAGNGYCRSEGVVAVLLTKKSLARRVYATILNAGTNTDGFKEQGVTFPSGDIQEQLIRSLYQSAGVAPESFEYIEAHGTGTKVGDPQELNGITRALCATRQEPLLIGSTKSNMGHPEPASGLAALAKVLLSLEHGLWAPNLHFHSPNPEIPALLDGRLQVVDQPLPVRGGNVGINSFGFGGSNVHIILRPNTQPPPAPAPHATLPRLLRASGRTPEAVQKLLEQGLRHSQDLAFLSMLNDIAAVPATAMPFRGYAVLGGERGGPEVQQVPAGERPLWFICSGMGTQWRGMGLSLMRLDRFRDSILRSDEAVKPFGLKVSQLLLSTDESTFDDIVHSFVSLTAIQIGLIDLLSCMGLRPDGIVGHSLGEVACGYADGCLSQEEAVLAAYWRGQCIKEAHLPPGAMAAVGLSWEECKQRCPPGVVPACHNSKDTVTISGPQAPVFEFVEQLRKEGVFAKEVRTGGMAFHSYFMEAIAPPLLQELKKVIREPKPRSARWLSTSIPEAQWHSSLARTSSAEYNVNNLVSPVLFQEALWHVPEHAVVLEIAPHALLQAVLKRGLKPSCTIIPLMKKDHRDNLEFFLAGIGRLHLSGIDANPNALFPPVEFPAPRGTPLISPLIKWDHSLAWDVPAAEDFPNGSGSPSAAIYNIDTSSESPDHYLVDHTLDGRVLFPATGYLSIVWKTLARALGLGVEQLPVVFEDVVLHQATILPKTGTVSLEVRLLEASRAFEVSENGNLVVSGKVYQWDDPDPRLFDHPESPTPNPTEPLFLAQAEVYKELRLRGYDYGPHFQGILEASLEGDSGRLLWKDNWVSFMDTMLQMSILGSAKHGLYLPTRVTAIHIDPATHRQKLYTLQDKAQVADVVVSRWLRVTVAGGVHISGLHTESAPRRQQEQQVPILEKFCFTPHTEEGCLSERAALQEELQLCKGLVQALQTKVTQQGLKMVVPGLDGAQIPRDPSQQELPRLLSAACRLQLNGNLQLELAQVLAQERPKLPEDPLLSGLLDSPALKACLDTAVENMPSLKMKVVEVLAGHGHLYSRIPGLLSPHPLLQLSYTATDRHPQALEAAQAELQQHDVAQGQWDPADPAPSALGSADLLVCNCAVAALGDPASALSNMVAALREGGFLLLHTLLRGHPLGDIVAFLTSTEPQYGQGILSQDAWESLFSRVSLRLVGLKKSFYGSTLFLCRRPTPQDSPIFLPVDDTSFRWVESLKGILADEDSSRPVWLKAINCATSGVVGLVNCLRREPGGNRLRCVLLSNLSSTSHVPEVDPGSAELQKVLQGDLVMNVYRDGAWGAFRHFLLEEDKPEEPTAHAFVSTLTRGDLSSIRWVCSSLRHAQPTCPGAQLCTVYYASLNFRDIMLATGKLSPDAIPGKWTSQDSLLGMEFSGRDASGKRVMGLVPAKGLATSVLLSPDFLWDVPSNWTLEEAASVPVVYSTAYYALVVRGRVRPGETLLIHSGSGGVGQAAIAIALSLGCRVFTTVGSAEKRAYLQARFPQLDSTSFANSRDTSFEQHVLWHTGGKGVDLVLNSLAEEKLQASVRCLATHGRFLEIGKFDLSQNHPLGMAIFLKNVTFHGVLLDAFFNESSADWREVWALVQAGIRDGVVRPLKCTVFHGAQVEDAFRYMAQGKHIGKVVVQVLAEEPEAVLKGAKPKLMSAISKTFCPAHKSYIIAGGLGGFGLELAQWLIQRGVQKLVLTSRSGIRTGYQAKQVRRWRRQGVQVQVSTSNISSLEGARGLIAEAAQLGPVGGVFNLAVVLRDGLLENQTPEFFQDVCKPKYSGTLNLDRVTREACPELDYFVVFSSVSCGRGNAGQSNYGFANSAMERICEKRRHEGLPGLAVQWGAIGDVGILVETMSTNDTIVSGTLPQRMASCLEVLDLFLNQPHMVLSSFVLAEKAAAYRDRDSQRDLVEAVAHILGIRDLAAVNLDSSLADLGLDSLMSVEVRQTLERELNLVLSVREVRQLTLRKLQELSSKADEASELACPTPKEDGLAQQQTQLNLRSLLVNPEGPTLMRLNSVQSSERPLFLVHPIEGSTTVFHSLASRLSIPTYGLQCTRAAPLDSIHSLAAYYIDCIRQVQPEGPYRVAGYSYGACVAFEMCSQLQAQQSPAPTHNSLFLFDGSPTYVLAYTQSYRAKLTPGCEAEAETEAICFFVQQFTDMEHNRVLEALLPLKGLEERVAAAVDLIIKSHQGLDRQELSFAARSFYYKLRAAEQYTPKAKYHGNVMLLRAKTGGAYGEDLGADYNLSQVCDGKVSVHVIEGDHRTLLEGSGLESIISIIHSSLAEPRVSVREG
Chain of Luciferin 4-monooxygenase (P08659 whole entry, the tested form may be a part): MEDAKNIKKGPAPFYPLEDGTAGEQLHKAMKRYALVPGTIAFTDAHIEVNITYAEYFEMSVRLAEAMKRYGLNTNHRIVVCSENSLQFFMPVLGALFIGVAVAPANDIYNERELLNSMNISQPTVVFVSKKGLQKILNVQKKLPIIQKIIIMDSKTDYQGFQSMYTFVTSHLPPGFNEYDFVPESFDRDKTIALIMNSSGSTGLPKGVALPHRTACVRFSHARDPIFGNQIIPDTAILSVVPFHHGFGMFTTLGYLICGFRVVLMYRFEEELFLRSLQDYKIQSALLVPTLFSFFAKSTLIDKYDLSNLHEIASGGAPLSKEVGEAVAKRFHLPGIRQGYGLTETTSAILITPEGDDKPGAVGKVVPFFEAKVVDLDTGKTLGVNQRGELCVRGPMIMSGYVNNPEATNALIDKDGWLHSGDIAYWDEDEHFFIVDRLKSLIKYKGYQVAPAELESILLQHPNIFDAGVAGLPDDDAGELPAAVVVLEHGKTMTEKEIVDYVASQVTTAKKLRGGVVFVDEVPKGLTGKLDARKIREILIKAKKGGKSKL

COc1ccc(-c2nc(C[S+]([O-])CC(=O)NCCc3ccc(C)cc3)c(C)o2)cc1OC (configuration not stated)
EC50 [1]: > 112 µM (not active) | EC50 [2]: > 112 µM (not active)

COc1ccc([N+](=O)[O-])cc1NC(=O)C(C)OC(=O)/C=C/c1ccco1 (configuration not stated)
IC50 (Fatty acid synthase [3]): 6.45 µM (active) | IC50 (Fatty acid synthase [4]): 3.26 µM (active)

Cc1c(OCC(=O)NC(Cc2ccc(Cl)cc2)C(=O)O)ccc2c(-c3ccccc3)cc(=O)oc12 (configuration not stated)
IC50 (Fatty acid synthase [3]): 13.3 µM (active) | IC50 (Fatty acid synthase [4]): 6.45 µM (active)

CCN1CCN(CCCNC(=O)C2CCN(c3nnc(-n4c(C)ccc4C)s3)CC2)CC1
AC50 [5]: 9.22 µM (active)

O=C(O)CC12C[C@H]3C[C@@H](C1)CC(n1ncc(N4CCN(c5ccccc5)CC4)c(Cl)c1=O)(C3)C2
EC50 [6]: > 260 µM (inactive) | IC50 (Leucine aminopeptidase): 152 µM (active)

O=C(Cn1cc(/C=N/O)c2ccccc21)N1CCOCC1
IC50 (Leucine aminopeptidase): 78.9 µM (active)

O=C(CN1C(=O)S/C(=C/C=C/c2ccccc2)C1=O)Nc1ccc(C(=O)O)cc1
IC50 (Leucine aminopeptidase): 24.5 µM (active)

O=C(CSc1cccc[n+]1[O-])c1cc(Cl)ccc1Cl
IC50 [7]: > 50 µM (not active) | EC50 [8]: 35.8 µM (active) | EC50 [9]: > 38 µM (not active)

Cc1cc(OCC(=O)Nc2ccc3c(c2)OCCO3)cc(C)c1Cl
EC50 (cells [10]): > 350 µM (not active) | EC50 (cells [11]): > 350 µM (not active)

NC1(C(=O)O)CCCc2ccc(N(CCCl)CCCl)cc21 (configuration not stated)
AC50 [5]: 16 µM (active)

COc1ccccc1C1c2ccc3ccccc3c2Oc2ncn(CCN(C)C)c(=N)c21 (configuration not stated)
CC50 [12]: 5.8 µM (active) | AC50 [13]: 2.72 µM (active) | AC50 [5]: 20.6 µM (active)

O=C(Oc1ccc2c(c1)OCO2)C12CC3CC(CC(C3)C1)C2
IC50 [7]: 5.49 µM (not active)

CCOc1c(Br)cc(CNc2ccc3c(c2)OCCO3)cc1OC
EC50 [14]: 0.31 µM (active) | EC50 (BJ [15]): 17.7 µM (active) | EC50 (BJ [16]): 2.12 µM (active) | EC50 [17]: 1.29 µM (active) | EC50 (BJ [18]): 1.41 µM (inconclusive) | EC50 [19]: 4.32 µM (active) | EC50 [20]: 3.63 µM (active)

CC1Cc2ccccc2N1C(=O)COC(=O)C1(c2ccccc2F)CCCC1 (configuration not stated)
IC50 [7]: 7.23 µM (not active)

CCCCCC(=O)NNC(=S)NC(=O)c1cccc([N+](=O)[O-])c1
EC50 (cells [10]): > 350 µM (not active) | EC50 (cells [11]): > 350 µM (not active) | IC50 (Leucine aminopeptidase): 24.4 µM (active)
